Assay results as given in US20100178299A1, “METHODS AND COMPOSITIONS FOR IMPROVING IMMUNE RESPONSES” (Northeastern University, priority 2007, published 2010).
“Also recorded” adds a separate entry of the source.

Experiments:
B16 melanoma = B16 melanoma growth and survival in mice given GM-CSF-transfected B16 tumor vaccine; type: in vivo, C57BL/6 mice; details: for survival of mice: log-rank
Excerpt: Tumor melanoma cells are transfected with GM-CSF then irradiated or treated with anti-proliferative drug, mitomycin C, in order to prevent the proliferation of these tumor vaccine cells in a patient to be injected with this vaccine. […] Hodi F S, Dranoff G. Combinatorial cancer immunotherapy. Adv Immunol. 2006; 90:341-68
B16 melanoma (1×10^6 cells, s.c.) were inoculated to syngeneic C57BL/6 mice. All the mice received tumor vaccination, GM-CSF transfectant of B16 cells (1×10^6 cells, s.c.), for 3 times in every week starting from day 2. On the same day, treatment with KW6002 (2 mg/kg, daily s.c. injection) and/or 60% oxygen was started until the end of the experiment. B16 tumor growth was retarded by treatment with 60% oxygen and combined treatment with KW6002 (left). Perpendicular tumor diameters were measured and tumor volumes were calculated according to the formula a2×b×0.52, where a is the smaller and b is the larger tumor diameter. […] The mice were euthanized when tumor reached 2.0 cm in diameter or became ulcerated. […] The difference was statistically significant with control vs 60% O2 (p=0.033) and control vs 60% O2+KW (p=0.001). The statistics was calculated by log-rank test.

[1] = test system: MCA 205 fibrosarcoma lung metastases; test: Adoptive immunotherapy of MCA 205 fibrosarcoma lung metastases; type: in vivo, mice; details: KW6002 20 mg/kg daily i.p. with adoptive transfer of 12.5×10^6 anti-tumor T cells; day 21
Method: Here, we observed the effect of adoptively transferred anti-tumor T cells on the weakly immunogenic MCA 205 fibrosarcoma lung metastases if treatment included A2AR antagonist KW6002. It is shown that treatment with this long-lived A2AR antagonist may strongly enhance the efficacy of adoptive immunotherapy (FIG. 7).
CTLs were prepared from tumor draining lymph nodes isolated from lymph nodes 12 days after s.c. inoculation with 1.5×105 MCA205 fibrosarcoma. After 2 days anti-CD3 activation and additional 3 days IL-2 expansion, these T cells were injected into mice with 10 days established pulmonary metastases (3×10^5 MCA205 cells). After the adoptive transfer, the mice received daily i.p. injection of 20 mg/kg of KW6002. The pulmonary metastases were examined by day 21 after tumor inoculation. (Please note that tumors appear as white nodules upon the ink injected lungs.)

RMA T lymphoma = RMA T lymphoma growth, rejection and survival in mice treated with caffeine and/or 60% oxygen; type: in vivo, C57BL/6 mice
A2AR = target: T1, A2AR (Homo sapiens, UniProt P29274); test: Control assay of ex vivo serum from caffeine-treated mice on adenosine→A2AR-induced cAMP accumulation in cells; type: cell-based; details: ex vivo serum from mice given caffeine 0.1% w/v in drinking water
T1 construct: host or cells: cells, not specified
T1 sequence (P29274 whole entry): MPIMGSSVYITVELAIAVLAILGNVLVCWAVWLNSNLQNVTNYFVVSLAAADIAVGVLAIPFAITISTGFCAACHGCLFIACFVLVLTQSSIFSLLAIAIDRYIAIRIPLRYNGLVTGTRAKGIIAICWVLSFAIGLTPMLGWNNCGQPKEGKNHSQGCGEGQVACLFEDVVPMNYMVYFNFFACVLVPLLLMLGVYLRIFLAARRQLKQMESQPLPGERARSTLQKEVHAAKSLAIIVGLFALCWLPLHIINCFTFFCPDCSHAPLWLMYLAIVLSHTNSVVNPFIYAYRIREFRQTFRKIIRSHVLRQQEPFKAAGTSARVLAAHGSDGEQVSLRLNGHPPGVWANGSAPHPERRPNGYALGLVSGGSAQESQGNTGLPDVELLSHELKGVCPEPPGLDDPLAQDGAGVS

TNP-specific IgM = test: TNP-KLH/CFA immunization with IFA booster, indirect ELISA of TNP-specific IgM (Example 2); type: in vivo, C57B1/6 mice
[2] = caffeine alone in drinking water (0.1% w/v), FIG. 2

CCn1c(=O)c2c(nc(/C=C/c3ccc(OC)c(OC)c3)n2C)n(CC)c1=O [KW6002, (E)-8-(3,4-dimethoxystyryl)-1,3-diethyl-7-methylxanthine]
B16 tumor growth (B16 melanoma; KW6002 2 mg/kg daily s.c. combined with 60% oxygen, n=8, 2 mg/kg): can significantly retard tumor growth; also recorded: retarded | survival of mice (B16 melanoma; KW6002 2 mg/kg daily s.c. combined with 60% oxygen, p=0.001 vs control): prolonged survival of mice | lung tumor nodules (pulmonary metastases) [1]: most of the tumor nodules were eliminated

Cn1c(=O)c2c(ncn2C)n(C)c1=O [caffeine, 1,3,7-trimethylxanthine]
RMA tumor growth (RMA T lymphoma; [2]): delayed tumor growth in mice | survival (RMA T lymphoma; [2]): no significant improvement of survival | rejection of RMA T lymphoma (RMA T lymphoma; combined treatment with caffeine and high (60%) oxygen atmosphere): significantly improved spontaneous rejection of RMA T lymphoma; also recorded: dramatically improving tumor rejection and survival; also recorded: significantly improved T cell-mediated rejection of RMA T lymphoma | survival of mice (RMA T lymphoma; low dose RMA 2×10^5 cells s.c., combined caffeine and 60% oxygen, about 30% of control mice survived): significantly improved survival of mice | in vivo levels of caffeine in serum versus adenosine→A2AR-induced cAMP accumulation (A2AR): sufficiently high to prevent (antagonize) adenosine→A2AR-induced cAMP accumulation in cells | effectiveness of immunization (TNP-specific IgM) (TNP-specific IgM; caffeine in drinking water added to 60% oxygen versus 60% oxygen alone, FIG. 4B): further improved effectiveness of immunization

oxygen
B16 tumor growth (B16 melanoma; 60% oxygen alone, with tumor vaccine, n=8): retarded | survival of mice (B16 melanoma; 60% oxygen alone, with tumor vaccine, p=0.033 vs control): prolonged survival of mice | tumor rejection (RMA T lymphoma; high dose RMA 3×10^5 cells s.c., 60% oxygen alone, n=8, most of the mice): did not reject the tumor; also recorded: couldn't reject the tumor | TNP-specific IgM production (TNP-specific IgM; 60% oxygen after vaccination versus normal oxygen, FIG. 4A): produced more IgM than control immunized mice
